The values below are quoted from earlier work in patent US8598325B2, “Solid-phase microextraction coatings and methods for their preparation” (priority 2002, dated 2013).

Where two headings read alike, the source gives them in different places.

Assay in series [1]: not given
The source holds these as a separate data set.

For series [2] the following is noted: at 25° C.

For `CCCCC(O)(Cn1cncn1)c1ccc(Cl)cc1Cl` (centres unmarked) [Hexaconazole, hexaconazole], the lipophilicity (LogP) (pH 7) is recorded as 3.9.

As to `CCCC(Cn1cncn1)c1ccc(Cl)cc1Cl` (centres unmarked) [Penconazole, penconazole], the Sol. in water in series [1] is listed as 73 mg/L. Further, the LogP (pH 7) is on record as 3.72. In addition, the “Vapour Pressure” value in series [2] was 0.366 mPa.

Consider `CC(C)(C)C(=O)C(Oc1ccc(Cl)cc1)n1cncn1` (centres unmarked) [Triadimefon, triadimefon], for which the Sol. in water in series [1] is 70 mg/L. Also, where the note is “at pH 7, 20° C.”, the LogP is 3.18. Further, in series [2], the “Vapour Pressure” value is 0.02 mPa.

Turning to `CC(C)(C)C(O)C(Oc1ccc(Cl)cc1)n1cncn1` (centres unmarked) [Triadimenol, triadimenol], the LogP (pH 7) is 3.18.

As usually defined, the LogP is the decadic logarithm of the partition coefficient of the neutral form, usually between octanol and water.
